Data as given in ChEMBL document CHEMBL1156449, “The nucleoside analog sangivamycin induces apoptotic cell death in breast carcinoma MCF7/adriamycin-resistant cells via protein kinase Cdelta and JNK activation” (J Biol Chem, 2007).
The source made the active and inactive calls. The calls are words filed in the database; no cut-off is given here.

Columns and labels:
[1] = molecular target: Transcription factor Jun (Homo sapiens) (UniProt P05412); assay: Reduction in induction of non phosphorylated form of c-Jun in SP600125 pretreated human multidrug resistant MCF/ADR cells at 0.3 uM after 48 hrs by immunoblot analysis; type: cell-based
Transcription factor Jun (Homo sapiens), sequence (P05412 whole entry): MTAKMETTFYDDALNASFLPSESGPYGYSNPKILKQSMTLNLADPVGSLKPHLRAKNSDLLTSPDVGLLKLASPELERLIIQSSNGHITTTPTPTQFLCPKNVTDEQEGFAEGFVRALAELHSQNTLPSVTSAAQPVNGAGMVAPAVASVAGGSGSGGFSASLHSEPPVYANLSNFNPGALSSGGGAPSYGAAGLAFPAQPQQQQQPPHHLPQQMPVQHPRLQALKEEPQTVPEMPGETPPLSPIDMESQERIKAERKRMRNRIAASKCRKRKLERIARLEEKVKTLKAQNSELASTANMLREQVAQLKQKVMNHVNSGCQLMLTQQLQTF

MCF/WT [2] = assay: Increase in Bcl-2 levels in human drug-sensitive MCF/WT cells at 0.3 uM by immunoblot analysis; type: functional, cell-based
MCF/WT [3] = assay: Induction of apoptosis in human drug-sensitive MCF/WT cells assessed as cleavage of lamin A at 0.3 uM by immunoblot analysis; type: functional, cell-based
[4] = Cell cycle arrest in human drug-sensitive MCF/WT cells assessed as accumulation at S phase at 0.3 uM after 48 hrs by propidium fluorescence flow cytometry; type: functional, cell-based
MCF/ADR [5] = assay: Induction of apoptosis in human multidrug resistant MCF/ADR cells assessed as accumulation of PARP at 0.3 uM after 48 hrs by immunoblot analysis; type: functional, cell-based
MCF/ADR [6] = assay: Induction of apoptosis in human multidrug resistant MCF/ADR cells assessed as activation of caspase 7 at 0.3 uM by immunoblot analysis; type: functional, cell-based
MCF/WT [7] = assay: Induction of apoptosis in human drug-sensitive MCF/WT cells assessed as cleavage of caspase 9 at 0.3 uM by immunoblot analysis; type: functional, cell-based
[8] = Inhibition of PKC
[9] = Cell cycle arrest in human drug-sensitive MCF/WT cells assessed as accumulation at G0/G1 phase at 0.3 uM after 72 hrs by propidium fluorescence flow cytometry; type: functional, cell-based
MCF/ADR [10] = assay: Reduction in induction of apoptosis in SP600125 pretreated human multidrug resistant MCF/ADR cells assessed as reduction of cleavage of lamin A at 0.3 uM after 48 hrs by immunoblot analysis; type: functional, cell-based
MCF/ADR [11] = assay: Induction of apoptosis in human multidrug resistant MCF/ADR cells assessed as activation of caspase 9 at 0.3 uM by immunoblot analysis; type: functional, cell-based
MCF/ADR [12] = assay: Induction of apoptosis in human multidrug resistant MCF/ADR cells assessed as annexin V binding to phosphatidylserine at 0.3 uM after 6 hrs; type: functional, cell-based
MCF/ADR [13] = assay: Cytocidal effect in human multidrug resistant MCF/ADR cells assessed as decrease in number of viable cells at 0.1 uM after 72 hrs by MTT colorimetric assay; type: functional, cell-based
MCF/WT [14] = assay: Increase in wild-type full length p53 accumulation in human drug-sensitive MCF/WT cells at 0.3 uM by immunoblot analysis; type: functional, cell-based
[15] = Cell cycle arrest in human multidrug resistant MCF/ADR cells assessed as accumulation at S phase at 0.3 uM after 72 hrs by propidium fluorescence flow cytometry; type: functional, cell-based
[16] = Cell cycle arrest in human multidrug resistant MCF/ADR cells assessed as accumulation at G2/M phase at 0.3 uM after 72 hrs by propidium fluorescence flow cytometry; type: functional, cell-based
MCF/WT [17] = assay: Increase in Bcl-x/s levels in human drug-sensitive MCF/WT cells at 0.3 uM by immunoblot analysis; type: functional, cell-based
MCF/ADR [18] = assay: Inhibition of induction of apoptosis in human multidrug resistant MCF/ADR cells assessed as inhibition of cleavage of PARP at 0.3 uM after 48 hrs by immunoblot analysis in presence of pan-specific inhibitor; type: functional, cell-based
[19] = Cell cycle arrest in human multidrug resistant MCF/ADR cells assessed as accumulation at G2/M phase at 0.3 uM after 48 hrs by propidium fluorescence flow cytometry; type: functional, cell-based
[20] = molecular target: Transcription factor Jun (Homo sapiens) (UniProt P05412); assay: Reduction in induction of c-Jun phosphorylation in human multidrug resistant MCF/ADR cells at 0.3 uM after 48 hrs by immunoblot analysis in presence of rottlerin; type: cell-based
MCF/WT [21] = assay: Induction of apoptosis in human drug sensitive MCF/WT cells assessed as propidium iodide binding to phosphatidylserine at 0.3 uM after 6 hrs; type: functional, cell-based
[22] = Cell cycle arrest in human multidrug resistant MCF/ADR cells assessed as accumulation at G0/G1 phase at 0.3 uM after 48 hrs by propidium fluorescence flow cytometry; type: functional, cell-based
[23] = Cell cycle arrest in human multidrug resistant MCF/ADR cells assessed as accumulation at sub G0/G1 phase at 0.3 uM after 48 hrs by propidium fluorescence flow cytometry; type: functional, cell-based

NC(=O)c1cn([C@@H]2O[C@H](CO)[C@@H](O)[C@H]2O)c2ncnc(N)c12 [SANGIVAMYCIN]
Activity [1]: Active | Activity (MCF/WT [2]): Active | Activity (MCF/WT [3]): inactive | Activity [4]: 9% | Activity (MCF/ADR [5]): Active | Activity (MCF/ADR [6]): Active | Activity (MCF/WT [7]): inactive | Ki [8]: 10 µM | Activity [9]: 57% | Activity (MCF/ADR [10]): Active | Activity (MCF/ADR [11]): Active | Activity (MCF/ADR [12]): Active | Activity (MCF/ADR [13]): Active | Activity (MCF/WT [14]): Active | Activity [15]: 25% | Activity [16]: 8% | Activity (MCF/WT [17]): Active | Activity (MCF/ADR [18]): Active | Activity [19]: 17% | Activity [20]: Active | Activity (MCF/WT [21]): inactive | Activity [22]: 20% | Activity [23]: 40%
